Literature values in patent US11752097B2, “N-acetylcysteine compositions and methods” (Endo Ventures Limited, priority 2020, dated 2023).
Read-outs that look alike come from different tables or passages of the source.

Assays:
[1] = pH 7.4, 25° C.
[2] = Zn^2+
[3] = Ni^2+
[4] = Cr^3+
[5] = pH 7.4, RT
[6] = Co^2+
[7] = pH 7.4, 37° C.
[8] = Hg^2+
[9] = pH 7.4, 37° C.; reaction with Nitroxyl (HNO)
[10] = not given; remark: listed apart in the source
[11] = not given; remark: listed apart in the source
[12] = ambient light
[13] = Cd^2+
[14] = pH 7, RT; reaction with Superoxide anion (O2^•−)
[15] = Mn^2+
[16] = pH 7, RT; reaction with Hydroxyl radical (^•OH)
[17] = following intravenous administration
[18] = Fe^3+
[19] = Cu^2+
[20] = not given; remark: listed apart in the source
[21] = pH 7, 25° C.
[22] = system: acetaminophen-overdose-induced hepatotoxicity; conditions: in vivo
[23] = ingestion of 10-15 g in a single dose
[24] = 25° C. and 0.1 mol · dm^−3 ionic strength (KNO3)
[25] = 37° C. and 0.15 mol · dm^−3 ionic strength (NaCl)
[26] = 25° C. and 0.12 mol · dm^−3 ionic strength (NaClO4)

SMILES: CC(=O)N[C@@H](CS)C(=O)O [Acetylcysteine, N-acetyl-L-cysteine]
- Rate constant [1]: 0.85 ± 0.09 M⁻¹ s⁻¹
- half-life (t1/2) (following an intravenous administration): 5.7 h
- administered acetylcysteine excreted in the urine unchanged (in vivo): 20-30%
- Complex formation constant (log K) [2, 24]: 7.04
- Complex formation constant (log K) [2, 25]: 6.23
- Complex formation constant (log K) [3, 26]: 5.02
- Complex formation constant (log K) [3, 25]: 4.86
- Complex formation constant (log K) [4, 26]: 8.26
- Rate constant [5]: ~1e+07 M⁻¹ s⁻¹
- Complex formation constant (log K) [6, 26]: 4.18
- Complex formation constant (log K) [6, 25]: 4.28
- Rate constant [7]: 415 ± 10 M⁻¹ s⁻¹
- Rate constant ([7]; reaction with Peroxynitrite): 415 ± 10 M⁻¹ s⁻¹
- Complex formation constant (log K) [8, 24]: 11.23
- Rate constant [9]: 500000 M⁻¹ s⁻¹
- Reaction of solutions with contact materials ([10]; contact with rubber, some metals (particularly iron and copper surfaces), and/or autoclaving): discoloration and hydrogen sulfide generation
- Reaction with contact materials ([10]; glass, plastic, aluminum, anodized aluminum, chromed metal and stainless steel): does not react
- Solubility: volume of alcohol for 1 gram ([11]; 1 gram in alcohol): 4 mL
- Solubility: volume of water for 1 gram ([11]; 1 gram in water): 5 mL
- Solubility in chloroform ([11]; chloroform): insoluble
- Solubility in ether ([11]; ether): insoluble
- Light stability [12]: stable in ambient light
- Complex formation constant (log K) [13, 24]: 7.25
- Rate constant [14]: 68 ± 6 M⁻¹ s⁻¹
- Complex formation constant (log K) [15, 25]: 3.64
- Rate constant [16]: 1.36e+10 M⁻¹ s⁻¹
- Potential adverse reactions [17]: acute flushing and erythema of the skin, and anaphylactoid reactions
- Complex formation constant (log K) [18, 26]: 10.58
- Complex formation constant (log K) [19, 24]: 9.02
- Complex formation constant (log K) [19, 25]: 6.64
- redox potential ([20]; relative to Glutathione (reduced GSH/oxidized GSSG) system as a reference standard): +63 mV
- Rate constant [21]: (1.36 ± 0.2) × 10^4 M^−1 s^−1
- Activity of isomer (prevention of hepatotoxicity) [22]: active

SMILES: CC(=O)N[C@H](CS)C(=O)O (single isomer, unassigned) [D-isomer of acetylcysteine]
- Activity of isomer (prevention of hepatotoxicity) [22]: not prevent hepatotoxicity
- Activity of isomer (prevention of hepatotoxicity) ([22]; listed as D-isomer): inactive

SMILES: N[C@@H](CCC(=O)N[C@@H](CS)C(=O)NCC(=O)O)C(=O)O [Glutathione]
- experimental redox potential ([20]; in the cytosol): −289 mV

SMILES: CC(=O)Nc1ccc(O)cc1 [acetaminophen, Acetaminophen]
- time to hepatic damage after overdose [23]: 2 to 5 days

SMILES: O=C(O)CN(CCN(CC(=O)O)CC(=O)O)CCN(CC(=O)O)CC(=O)O [DTPA, diethylenetriaminepentaacetic acid]
- Complex formation constant (log K) ([2]; conditions not given): 18.75
- Complex formation constant (log K) ([3]; conditions not given): 20.32
- Complex formation constant (log K) ([6]; conditions not given): 18.40
- Complex formation constant (log K) ([8]; conditions not given): 27.00
- Complex formation constant (log K) ([13]; conditions not given): 19.31
- Complex formation constant (log K) ([15]; conditions not given): 15.60
- Complex formation constant (log K) ([18]; conditions not given): 28.60
- Complex formation constant (log K) ([19]; conditions not given): 21.53

SMILES: O=C(O)CN(CCN(CC(=O)O)CC(=O)O)CC(=O)O [EDTA, Ethylenediaminetetraacetic acid]
- Complex formation constant (log K) ([2]; conditions not given): 16.50
- Complex formation constant (log K) ([3]; conditions not given): 18.62
- Complex formation constant (log K) ([4]; conditions not given): 23.40
- Complex formation constant (log K) ([6]; conditions not given): 16.31
- Complex formation constant (log K) ([8]; conditions not given): 21.80
- Complex formation constant (log K) ([13]; conditions not given): 16.46
- Complex formation constant (log K) ([15]; conditions not given): 14.04
- Complex formation constant (log K) ([18]; conditions not given): 25.10
- Complex formation constant (log K) ([19]; conditions not given): 18.80
